Experimental data: ChEMBL document CHEMBL1139123, “Rational design and synthesis of novel nucleotide anti-Giardia agents” (Bioorg Med Chem Lett, 2007)
≈ marks a conversion by molar mass, not a printed value.

How the values were obtained:
Giardia intestinalis [1] = assay: Antiprotozoal activity against Giardia lamblia WB6 trophozoites after 48 hrs; type: functional; settings: Giardia duodenalis, WB6, 48 h
Giardia intestinalis [2] = assay: Antiprotozoal activity against Giardia lamblia WB6 assessed as inhibition of cyst formation at 10 uM after 4 days relative to control; type: functional; settings: Giardia duodenalis, WB6, 96 h
[3] = Toxicity in bovine MDBK cells; settings: bovine (Bos taurus)
[4] = Therapeutic index, ratio of IC50 for bovine MDBK cells to MIC for Giardia lamblia WB6; type: cell-based; settings: cattle

| SMILES | MIC (Giardia intestinalis [1]) | inhibition at 10 µM (Giardia intestinalis [2]) | IC50 [3] | selectivity ratio [4] |
| --- | --- | --- | --- | --- |
| CC(=O)N[C@@H]1[C@@H](O)[C@H](O)[C@@H](CO)O[C@@H]1CCOP(=O)(O)CC[C@H]1O[C@@H](n2ccc(=O)[nH]c2=O)[C@H](O)[C@@H]1O | 3.9 µM (≈ 2.16 µg/mL) | 27.5% | 250 µM | 64 |
| CC(=O)N[C@@H]1[C@@H](O)[C@H](O)[C@@H](CO)O[C@@H]1CCO | 3.9 µM (≈ 0.972 µg/mL) | 56.2% | 125 µM | 32 |
| C=CC[C@H]1O[C@H](CO)[C@@H](O)[C@H](O)[C@H]1NC(C)=O | 15.6 µM (≈ 3.83 µg/mL) | 9.7% | 60 µM | 17 |
